Patent US6043274A, “Method of treating diabetic cardiomyopathy” (priority 1999, dated 2000)

Assays:
mice = conditions: intravenously; cited from earlier work
dogs = conditions: intravenously; cited from earlier work
[1] = tested on: aldose reductase (human recombinant, expressed in SF 9 cells); test: Aldose reductase assay, NADPH dependent reduction of glyceraldehyde; format: biochemical; conditions: glyceraldehyde as substrate, 37° C., plot only, no value given
Protocol: Aldose reductase assays were as described in Nishimura C., Yamaoka T., Mizutani M., Yamashita K., Akera T., Tanimoto T., Purification And Characterization Of The Recombinant Human Aldose Reductase Expressed In Baculovirus System, Biochem. Biophys. Acta, Jun. 24, 1991; 1078(2):171-8.
Briefly, Dimesna (0-20 μM) was incubated at 37° C. with aldose reductase (0.0016 units, human recombinant, expressed in SF 9 cells) and NADPH (0.15 mM) in sodium phosphate buffer (100 mM, pH 6.2). To initiate assays, glucose (10-150 mM) was added to reactions and the decrease in absorbance at 340 nm (oxidation of NADPH) was monitored. Assays were run in duplicate or triplicate. Slopes were calculated using Varian-Cary software package 2.0 and averaged. In all cases errors were 4% or less. Lineweaver Burk analysis (Enzyme Kinetics, version 1.61) was used to calculate inhibition constants.
Aldose reductase assays were as described above. Dimesna (0-30 mM) was evaluated for its effect on the NADPH dependent reduction of glyceraldehyde (0.050-6 mM) to aldose at 37° C. Assays were run in duplicate or triplicate. Slopes were calculated using Varian-Cary software package 2.0 and averaged. In all cases errors were 4% or less. Lineweaver Burk analysis (Enzyme Kinetics, version 1.61) was used to calculate inhibition constants.

diabetic retinopathy = conditions: humans, mainly in the 1980s; cited from earlier work

## O=S(=O)([O-])CCSSCCS(=O)(=O)[O-].[Na+].[Na+] [Dimesna, disodium 2,2'-dithiobis ethane sulfonate]
mice
  dose administered with no adverse effects: > 3750 mg/kg
dogs
  dose administered with no adverse effects: > 3750 mg/kg
[1]
  Inhibition of Aldose Reductase (Lineweaver Burk plot): Inhibition

## O=C1NC(=O)[C@@]2(CCOc3ccc(F)cc32)N1 [sorbinil]
Diabetic retinopathy
  efficacy in slowing the progress of diabetic retinopathy: some efficacy
  tolerability in patients: not well tolerated
